Counter-ions that a name gives are not always drawn.
biological target: factor Xa (Homo sapiens, UniProt P00742); assay: Factor Xa assay (Test 1a), chromogenic; type: biochemical; design: purchased Enzyme Research Laboratories, Inc; South Bend, Ind; conditions: in vitro factor Xa assay Test 1a; human factor Xa 0.5 nM, substrate S-2765 140 μM, 25° C.; Ki from IC50 corrected for substrate competition
Source text: The ability of a compound of formula (I) to inhibit factor Xa, thrombin, plasmin, elastase, and trypsin may be assessed by determining the concentration of compound of formula (I) that inhibits enzyme activity by 50% (IC50). Purified enzymes are used in chromogenic assays. To determine the inhibition constant, the IC50 value is corrected for competition with substrate using the formula:
Ki=IC50×(1/{1+((substrate concentration)/substrate Km)})
where Km is the Michaelis-Menten constant. Y. -C. Chen and W. H. Prusoff, Biochem. Pharmacol. 22: […] (1973), which is incorporated herein by reference.
TBS-PEG buffer (50 mM Tris-Cl, pH 7.8, 200 mM NaCl, 0.05% (w/v) PEG-8000, 0.02% (w/v) NaN3) is used for this assay. The IC50 is determined by combining in appropriate wells of a Costar half-area microtiter plate 25 μl human factor Xa (Enzyme Research Laboratories, Inc.; South Bend, Ind.) in TBS-PEG; 40 μl 10% (v/v) DMSO in TBS-PEG (uninhibited control) or various concentrations of the compound to be tested diluted in 10% (v/v) DMSO in TBS-PEG; and substrate S-2765 (N-benzyloxycarbonyl-D-Arg-Gly-L-Arg-p-nitroanilide; Kabi Pharmacia, Inc.; Franklin Ohio) in TBS-PEG.
The assays are performed by pre-incubating the compound of formula (I) plus enzyme for 10 min, then the assay is initiated by adding substrate to obtain a final volume of 100 μl. The initial velocity of chromogenic substrate hydrolysis is measured by the change in absorbance at 405 nm using a Bio-tek Instruments kinetic plate reader (Ceres UV900HDi) at 25° C. during the linear portion of the time course (usually 1.5 min after addition of substrate). The concentration of inhibitor that causes a 50% decrease in the rate of substrate hydrolysis is predicted by linear regression after plotting the relative rates of hydrolysis (compared to the uninhibited control) versus the log of the compound of formula (I) concentration. The enzyme concentration is 0.5 nM and substrate concentration is 140 μM.

Sequence of factor Xa (P00742 235-488 limits assumed): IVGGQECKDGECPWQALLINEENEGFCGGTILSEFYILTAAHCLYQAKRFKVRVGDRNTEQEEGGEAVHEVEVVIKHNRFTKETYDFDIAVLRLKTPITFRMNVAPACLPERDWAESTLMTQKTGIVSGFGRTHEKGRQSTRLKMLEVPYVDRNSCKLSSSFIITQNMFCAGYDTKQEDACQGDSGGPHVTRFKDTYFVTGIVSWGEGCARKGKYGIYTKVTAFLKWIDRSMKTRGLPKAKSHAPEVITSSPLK
Sequence of factor Xa (P00742 41-179 limits assumed): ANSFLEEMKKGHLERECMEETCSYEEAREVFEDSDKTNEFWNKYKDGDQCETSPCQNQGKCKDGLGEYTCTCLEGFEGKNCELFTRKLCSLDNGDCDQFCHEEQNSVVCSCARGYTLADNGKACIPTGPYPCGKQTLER

Row | SMILES | Ki [nM]
1 | CCC(C)[C@@H](C(=O)N[C@@H](CCCNC(=N)N)C(N)=O)N(C)C(=O)C(Cc1ccc(C(=N)N)cc1)c1cccnc1 (mixture of isomers) [Example 18, 2-(S)-{[3-(4-Carbamimidoyl-phenyl)-2-(R,S)-pyridin-3-yl-propionyl]-methyl-amino}-3-methyl-pentanoic acid (1-(S)-carbamoyl-4-guanidino-butyl)-amide trifluoroacetic acid salt] | 310
2 | CCCC[C@H](NC(=O)C(Cc1ccc(C(=N)N)cc1)c1cccnc1)C(=O)N[C@@H](CCCNC(=N)N)C(N)=O (mixture of isomers) [Example 23, 2-(S)-[3-(4-Carbamimidoyl-phenyl)-2-(R,S)-pyridin-3-yl-propionylamino]-hexanoic acid (1-(S)-carbamoyl-4-guanidino-butyl)-amide trifluoroacetic acid salt] | 2.8
3 | CN(C(=O)C(Cc1ccc(C(=N)N)cc1)c1cccnc1)[C@@H](Cc1ccccc1)C(=O)N[C@@H](CCCNC(=N)N)C(N)=O (mixture of isomers) [Example 26, 2-(S)-(2-(S)-{[3-(4-Carbamimidoyl-phenyl)-2-(R,S)-pyridin-3-yl-propionyl]-methyl-amino}-3-phenyl-propionylamino)-5-guanidino-pentanoic acid amide trifluoroacetic acid salt] | 1070
4 | N=C(N)NCCC[C@H](NC(=O)[C@H](Cc1ccc2ccccc2c1)NC(=O)C(Cc1ccc(C(=N)N)cc1)c1ccc2ccccc2c1)C(N)=O (mixture of isomers) [Example 39, 2-(S)-{2-(S)-[3-(4-Carbamimidoyl-phenyl)-2-(R,S)-naphthalen-2-yl-propionyl-amino]-3-naphthalen-2-yl-propionylamino}-5-guanidino-pentanoic acid amide trifluoroacetic acid salt] | 2890
5 | N=C(N)NCCC[C@H](NC(=O)[C@H](CCCN)NC(=O)C(Cc1ccc(C(=N)N)cc1)c1cccnc1)C(N)=O (mixture of isomers) [Example 51, 2-(S)-{5-Amino-2-(S)-[3-(4-carbamimidoyl-phenyl)-2-(R,S)-pyridin-3-yl-propionylamino]-pentanoylamino}-5-guanidino-pentanoic acid amide trifluoroacetic acid salt] | 3860
6 | N=C(N)NCCC[C@H](NC(=O)[C@H](CO)NC(=O)C(Cc1ccc(C(=N)N)cc1)c1ccccc1)C(N)=O (mixture of isomers) [Example 57, 2-(S)-{2-(S)-[3-(4-Carbamimidoyl-phenyl)-2-(R,S)-phenyl-propionylamino]-3-hydroxy-propionylamino}-5-guanidino-pentanoic acid amide trifluoroacetic acid salt] | 1930
7 | N=C(N)NCCC[C@H](NC(=O)[C@@H](NC(=O)C(Cc1ccc(C(=N)N)cc1)c1cccnc1)c1ccccc1)C(N)=O (mixture of isomers) [Example 66, 2-(S)-{2-(S)-[3-(4-Carbamimidoyl-phenyl)-2-(R,S)-pyridin-3-yl-propionyl-amino]-2-phenyl-acetylamino}-5-guanidino-pentanoic acid amide trifluoroacetic acid salt] | 2.3
8 | CC(Cc1ccc(C(=N)N)cc1)(C(=O)N[C@@H](COCc1ccccc1)C(=O)N[C@@H](CCCNC(=N)N)C(N)=O)c1ccccc1 (mixture of isomers) [Example 70, 2-(S)-{3-Benzyloxy-2-(S)-[3-(4-carbamimidoyl-phenyl)-2-(R,S)-methyl-2-phenyl-propionylamino]-propionylamino}-5-guanidino-pentanoic acid amide trifluoroacetic acid salt] | 30
9 | N=C(N)NCCC[C@H](NC(=O)[C@@H](NC(=O)C(Cc1ccc(C(=N)N)cc1)c1ccc2ccccc2c1)C1CCCCC1)C(=O)O (mixture of isomers) [Example 79, 2-(S)-{2-(S)-[3-(4-Carbamimidoyl-phenyl)-2-(R,S)-naphthalen-2-yl-propionyl-amino]-2-cyclohexyl-acetylamino}-5-guanidino-pentanoic acid trifluoroacetic acid salt] | 22.5

Results, then the compound that gave them:

Row | Ki [nM] | SMILES
10 | 2840 | N=C(N)NCCC[C@H](NC(=O)[C@H](CCC(=O)O)NC(=O)C(Cc1ccc(C(=N)N)cc1)c1ccc2ccccc2c1)C(=O)N[C@@H](CC1CCCCC1)C(N)=O (mixture of isomers) [Example 82, 4-(S)-[3-(4-Carbamimidoyl-phenyl)-2-(R,S)-naphthalen-2-yl-propionylamino]-4-[1-(S)-(1-(S)-carbamoyl-2-cyclohexyl-ethylcarbamoyl)-4-guanidino-butylcarbamoyl]-butyric acid trifluoroacetic acid salt]
11 | 9.1 | N=C(N)NCCC[C@H](NC(=O)[C@@H](NC(=O)C(Cc1ccc(C(=N)N)cc1)c1ccc2ccccc2c1)C1CCCCC1)C(N)=O (mixture of isomers) [Example 95, 2-(S)-{2-(S)-[3-(4-Carbamimidoyl-phenyl)-2-(R,S)-naphthalen-2-yl-propionylamino]-2-cyclohexyl-acetylamino}-5-guanidino-pentanoic acid amide trifluoroacetic acid salt]
12 | 8.4 | CC(Cc1ccc(C(=N)N)cc1)(C(=O)N[C@H](C(=O)N[C@@H](CCCNC(=N)N)C(N)=O)C1CCCCC1)c1ccccc1 (mixture of isomers) [Example 96, 2-(S)-{2-(S)-[3-(4-Carbamimidoyl-phenyl)-2-(R,S)-methyl-2-phenyl-propionylamino]-2-cyclohexyl-acetylamino}-5-guanidino-pentanoic acid amide trifluoroacetic acid salt]
13 | 440 | CC(Cc1ccc(C(=N)N)cc1)(C(=O)N[C@@H](CC1CCCCC1)C(=O)N[C@@H](CCCNC(=N)N)C(N)=O)c1ccccc1 (mixture of isomers) [Example 100, 2-(S)-{2-(S)-[3-(4-Carbamimidoyl-phenyl)-2-(R,S)-methyl-2-phenyl-propionylamino]-3-cyclohexyl-propionylamino}-5-guanidino-pentanoic acid amide trifluoroacetic acid salt]
14 | 67 | N=C(N)NCCC[C@H](NC(=O)[C@H](Cc1ccccc1)NC(=O)C(Cc1ccc(C(=N)N)cc1)c1cccnc1)C(N)=O (mixture of isomers) [Example 106, 2-(S)-{2-(S)-[3-(4-Carbamimidoyl-phenyl)-2-(R,S)-pyridin-3-yl-propionylamino]-3-phenyl-propionylamino}-5-guanidino-pentanoic acid amide trifluoroacetic acid salt]
15 | 16 | Cc1cccc(C(Cc2ccc(C(=N)N)cc2)C(=O)N[C@H](C(=O)N[C@@H](CCCNC(=N)N)C(N)=O)C2CCCCC2)c1 (mixture of isomers) [Example 122, 2-(S)-{2-(S)-[3-(4-Carbamimidoyl-phenyl)-2-(R,S)-m-tolyl-propionylamino]-2-cyclohexyl-acetylamino}-5-guanidino-pentanoic acid amide hydrochloric acid salt]
16 | 11 | CCOC(=O)[C@H](CCCNC(=N)N)NC(=O)[C@@H](NC(=O)C(Cc1ccc(C(=N)N)cc1)c1cccc(F)c1)C1CCCCC1 (mixture of isomers) [Example 126, 2-(S)-{2-(S)-[3-(4-Carbamimidoyl-phenyl)-2-(R,S)-(3-fluoro-phenyl)-propionylamino]-2-cyclohexyl-acetylamino}-5-guanidino-pentanoic acid ethyl ester hydrochloric acid salt]
17 | 13 | N=C(N)NCCC[C@H](NC(=O)[C@@H](NC(=O)C(Cc1ccc(C(=N)N)cc1)c1ccccc1)C1CCCCC1)C(N)=O (mixture of isomers) [Example 135, 2-(S)-{2-(S)-[3-(4-Carbamimidoyl-phenyl)-2-(R,S)-phenyl-propionylamino]-2-cyclohexyl-acetylamino}-5-guanidino-pentanoic acid amide hydrochloric acid salt]
18 | 55 | N=C(N)c1ccc(CNC(=O)[C@@H](NC(=O)C(Cc2ccc(CN)cc2)C2CCCCC2)C2CCCCC2)cc1 (mixture of isomers) [Example 138, 3-(4-Aminomethyl-phenyl)-N-[(S)-(4-carbamimidoyl-benzyl-carbamoyl)-cyclohexyl-methyl]-2-(R,S)-cyclohexyl-propionamide acetic acid salt]
19 | 3 | Cc1ccccc1C(Cc1ccc(C(=N)N)cc1)C(=O)N[C@H](C(=O)N[C@@H](CCCNC(=N)N)C(N)=O)C1CCCCC1 (mixture of isomers) [Example 140, 2-(S)-{2-(S)-[3-(4-Carbamimidoyl-phenyl)-2-(R,S)-o-tolyl-propionylamino]-2-cyclohexyl-acetylamino}-5-guanidino-pentanoic acid amide hydrochloric acid salt]

Source: patent US6759420B1, “Arylalkanoyl derivatives, processes for their preparation, their use and pharmaceutical compositions containing them” (Aventis Pharma Deutschland GmbH, priority 1999, dated 2004)
